Results from patent publication US20150202313A1, “Macromolecular Prodrugs for Hard Tissue and Methods of Use Thereof” (New York Society for The Ruptured and Crippled Maintaining …, priority 2012, published 2015).

Columns and labels:
[1] = tested on: open fracture mouse model (femoral shaft fracture); assay: Therapeutic efficacy in open fracture mouse model, micro-CT analysis of callus; type: in vivo, Swiss Webster mice
Description: Ten-week-old male Swiss Webster mice were purchased from Charles River Laboratories, and maintained under standard housing conditions. The animals were acclimated for at least 1 week before any experimental procedure. Under general anesthesia with isoflurane, the hips, thighs, and knees on the right side of the animal were prepared with Betadine (povidone-iodine) solution. A 1.0 cm right medial parapatellar incision was made on the right knee. The patella was dislocated laterally to expose the femoral condyles. A 25-guage needle was introduced into the canal and driven in a retrograde intramedullary fashion to the level of the greater trochanter. Distally, the needle was cut flush with the cortex (length was about 1.4 cm) so as not to interfere with motion of the knee. […] Postoperatively, mice were placed on clean paper towels in their cages (to avoid inhalation/aspiration of the bedding material) and monitored until the animals were fully awake. The mice were monitored for signs of pain with analgesia and antibiotics given according to established protocol. […]
For the quantitative analysis, we specifically focused on the site of fracture callus formation. […] The following parameters were measured and calculated: callus volume (Cl.V), callus thickness (Cl.Th), callus separation (Cl.Sp) and the ratio of callus surface to volume (Cl.S/Cl.V). […]

[2] = tested on: open fracture mouse model (femoral shaft fracture); assay: Therapeutic efficacy in open fracture mouse model, Safranin O histology of callus; type: in vivo, Swiss Webster mice; details: 21 days post fracture
Description: Ten-week-old male Swiss Webster mice were purchased from Charles River Laboratories, and maintained under standard housing conditions. The animals were acclimated for at least 1 week before any experimental procedure. Under general anesthesia with isoflurane, the hips, thighs, and knees on the right side of the animal were prepared with Betadine (povidone-iodine) solution. A 1.0 cm right medial parapatellar incision was made on the right knee. The patella was dislocated laterally to expose the femoral condyles. A 25-guage needle was introduced into the canal and driven in a retrograde intramedullary fashion to the level of the greater trochanter. Distally, the needle was cut flush with the cortex (length was about 1.4 cm) so as not to interfere with motion of the knee. Controlled unilateral transverse femoral shaft fractures were created with a #15 blade. […] Postoperatively, mice were placed on clean paper towels in their cages (to avoid inhalation/aspiration of the bedding material) and monitored until the animals were fully awake. The mice were monitored for signs of pain with analgesia and antibiotics given according to established protocol. […]
After micro-CT analysis, the fractured femurs were decalcified using 14% EDTA at room temperature for 30 days. […] The specimens were then paraffin embedded, sectioned (5 μm thickness), stained with Safranin 0 and histologically evaluated.

[3] = Weight loss side effect during treatment; details: in vivo
Description: Eighteen 10-week-old male Swiss Webster mice were osteotomized and randomly assigned into three groups (6 mice/group). […] The overall SIM doses given to the SIMA and SIM/SIM-mPEG were equivalent. All mice were euthanized 21 days post osteotomy.

CCC(C)(C)C(=O)O[C@H]1C[C@@H](C)C=C2C=C[C@H](C)[C@H](CC[C@@H](O)C[C@@H](O)CC(=O)O)[C@H]21 [SIMA, simvastatin acid]
quantitative morphometric indices of callus (micro-CT), comparison with CON ([1]; 21 days post osteotomy, SIMA equiv. SIM 6 mg/kg/day i.p., micelles equiv. SIM 42 mg/kg/wk i.v.): No statistical significance
mineralization of the fracture callus (micro-CT images) ([1]; 21 days post-fracture): less mineralized callus formation at the fracture site
histological features of callus sections (Safranin O) [2]: intermediate stage between CON and SIM/SIM-mPEG groups
side effect of weight loss [3]: weight loss observed
